Data: patent publication US4665087A, “1-(carbamyl, thiocarbamyl, and iminocarbamyl)-indoline derivatives” (Ciba-Geigy Corporation, priority 1985, dated 1987)
Structures can show the parent of a compound that is named as a salt.

Assays:
[1] = target: T1, angiotensin-converting enzyme (Oryctolagus cuniculus, UniProt P12822); assay: in vitro inhibition of the angiotensin-converting enzyme; format: biochemical, rabbit
T1 construct: freshly prepared from lungs of adult male rabbits; from tissue; host or cells: lungs of adult male rabbits
T1 sequence (P12822 34-1310): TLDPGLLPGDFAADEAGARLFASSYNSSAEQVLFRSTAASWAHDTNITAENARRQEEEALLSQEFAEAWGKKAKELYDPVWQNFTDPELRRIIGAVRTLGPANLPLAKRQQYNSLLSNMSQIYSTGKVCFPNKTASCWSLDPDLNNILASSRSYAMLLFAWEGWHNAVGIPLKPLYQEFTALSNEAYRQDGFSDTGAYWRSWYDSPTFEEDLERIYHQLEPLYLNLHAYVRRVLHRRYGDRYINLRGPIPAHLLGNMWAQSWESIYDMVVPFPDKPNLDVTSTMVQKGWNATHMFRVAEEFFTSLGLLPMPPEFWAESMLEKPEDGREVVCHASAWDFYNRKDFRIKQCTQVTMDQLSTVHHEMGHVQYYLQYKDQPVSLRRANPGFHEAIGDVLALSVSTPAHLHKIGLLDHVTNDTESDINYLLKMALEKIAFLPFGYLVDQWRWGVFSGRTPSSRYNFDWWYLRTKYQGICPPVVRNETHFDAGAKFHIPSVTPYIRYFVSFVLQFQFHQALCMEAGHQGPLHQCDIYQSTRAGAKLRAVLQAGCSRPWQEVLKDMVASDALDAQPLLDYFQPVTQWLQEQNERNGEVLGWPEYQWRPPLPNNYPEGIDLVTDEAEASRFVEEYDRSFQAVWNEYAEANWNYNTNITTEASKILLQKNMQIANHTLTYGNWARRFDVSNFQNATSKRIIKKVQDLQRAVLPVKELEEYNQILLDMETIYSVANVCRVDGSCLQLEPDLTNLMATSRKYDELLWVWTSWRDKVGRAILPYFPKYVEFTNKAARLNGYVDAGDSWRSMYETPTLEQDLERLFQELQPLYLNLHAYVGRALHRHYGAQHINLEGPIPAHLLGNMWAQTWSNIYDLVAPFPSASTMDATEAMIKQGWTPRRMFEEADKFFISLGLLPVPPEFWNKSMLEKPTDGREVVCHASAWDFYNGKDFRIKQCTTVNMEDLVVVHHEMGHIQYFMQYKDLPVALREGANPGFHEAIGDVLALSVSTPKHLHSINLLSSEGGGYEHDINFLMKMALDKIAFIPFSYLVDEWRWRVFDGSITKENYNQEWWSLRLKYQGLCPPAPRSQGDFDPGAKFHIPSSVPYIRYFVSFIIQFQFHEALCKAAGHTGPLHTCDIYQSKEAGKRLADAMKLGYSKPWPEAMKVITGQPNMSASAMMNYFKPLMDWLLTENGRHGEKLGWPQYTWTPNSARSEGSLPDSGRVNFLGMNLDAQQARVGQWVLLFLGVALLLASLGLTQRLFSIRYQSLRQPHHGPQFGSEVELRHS
Method: Biophys. Acta 293, 451 (1973). According to this method said compounds are dissolved at about 1 mM concentrations in phosphate buffer, externally cooled with ice. To these solutions various μl amounts of 1 mM of histidyl-leucine in phosphate buffer are added, followed by 100 μl of 4mM hippuryl-histidyl-leucine in phosphate buffer and 50 μl of the angiotensin-converting enzyme, which is freshly prepared from lungs of adult male rabbits in Tris buffer, containing potassium and magnesium chloride, as well as sucrose. The solutions are incubated at 37° C. for 30 minutes and combined with 0.75 ml or 0.6 N aqueous sodium hydroxide to stop further reaction. Then 100 μl of o-phthalaldehyde are added at room temperature, and 10 minutes later 100 μl of 6N hydrochloric acid. These samples are read against water in a spectrophotometer set at 360 nm, and the optical densities thereof estimated. They are corrected for the standard curve via a conversion factor expressing nanomoles of histidyl-leucine formed during the 30 minute incubation period. The results are plotted against drug concentration to determine the IC50, i.e., the drug concentration which gives half the activity of the control sample containing no drug. Again, representative members of the compounds of this invention are very effective in this in vitro test system, down to IC50 values as low as 5 nM (5×10^-9 M).

[2] = system: angiotensin I pressor response; assay: inhibition of the angiotensin I pressor response in anesthetized normotensive rats; format: in vivo; conditions: rat, 1.0 mg/kg i.v.
Method: The enzyme renin normally causes specific hydrolysis of the circulating protein renin substrate. This hydrolysis generates angiotensin I, which is further hydrolyzed by the action of said converting enzyme to the potent vasoconstrictor angiotensin II. The inhibition of said enzyme prevents the generation of angiotensin II from I and, therefore, attenuates any pressure response following an angiotensin I challenge.
The corresponding in vivo test is performed with male, normotensive rats, which are anesthetized with 100-120 mg/kg i.p. of sodium ethyl-(1-methylpropyl)-malonylthiourea. A femoral artery and saphenous vein are cannulated for direct blood pressure measurement and i.v. administration of angiotensin I and compounds of this invention. After the basal blood pressure is stabilized, pressor response is to 3 challenge of 0.33 μg/kg of angiotensin I i.v., in 5 minutes intervals, are obtained. Such pressure responses are again obtained 5, 10, 15, 30 and 60 minutes after either i.v., or p.o. administration (stomach tube) of the compounds to be tested, and compared with the initial responses. […]

NCCCCN(C[C@@H](CCc1ccccc1)C(=O)O)C(=O)N1c2ccccc2C[C@H]1C(=O)O [Example 9, 1S-[(R)-N-(2-carboxy-4-phenylbutyl)-N-(4-aminobutyl)carbamoyl]-2,3-dihydroindole-2-carboxylic acid disodium salt]
IC50 [1]: ~6 nM
inhibition of the angiotensin I induced hypertension [2]: virtually completely inhibits
